Assay results taken from patent publication US5834301A, “Method of removing color from kraft wood pulps” (priority 1995, dated 1998).

Columns and labels:
Assay type in all cases: biochemical
Details in all cases: 1 mM reagent
[1] = tested on: Streptomyces sp. TUB B-12-2 endoxylanase xyl 2
Protocol: (§1) Xylanase activity was routinely determined by measuring the release of reducing sugars from either 1% (w/v) alkali-soluble or water soluble oat-spelt xylan, using the Somogyi's modification Nelson method (NS) as previously described. Crude or purified enzyme preparations were diluted appropriately to obtain maximal activity consistent with a linear response. For comparative purposes, xylanase activities were measured against 1% (w/v) water soluble and water insoluble xylan from either oat-spelts or birch (Sigma). The dinitrosalicylic acid (DNS) method of Miller, Anal. Chem., 31:426-429 (1959) was used to assay xylanase activity during initial screening. Carboxymethylcellulase activity (CMCase) was assayed by replacing 1% xylan with 1% of low viscosity carboxymethyl cellulose (Sigma). Acetylated glucuronoxylan was recovered from birch wood flakes by hot water extraction. β-Xylosidase was assayed as described by Bachmann and McCarthy, J. Gen. Microbiol., 135:293-299 (1989) using 5 mM p-nitrophenyl-β-D-xylopyranoside in 50 mM potassium phosphate buffer at pH 7.0. The values of the Michaelis constant (Km) and the maximum velocity (Vmax) were determined from a Lineweaver-Burke plot of assayed activities over a range of substrate concentrations. Suitably diluted xylanases were incubated with alkali-soluble birch wood or oat spelt xylan at concentrations ranging from 0.5 to 10 mg/ml under the assay conditions given.
(§2) f. Effectors. We investigated the effects of 1 mM metal ions and other agents on the activities of purified endoxylanases (Table 14).

[2] = tested on: Streptomyces sp. TUB B-12-2 endoxylanase xyl 3
Protocol: as §1, §2

[3] = tested on: Streptomyces sp. TUB B-12-2 endoxylanase xyl 1a
Protocol: as §1, §2

[4] = tested on: Streptomyces sp. TUB B-12-2 endoxylanase xyl 4
Protocol: as §1, §2

[5] = tested on: Streptomyces sp. TUB B-12-2 endoxylanase xyl 1b
Protocol: as §1, §2

Compound	Relative activity (%) xyl 2 [1] [%]	Relative activity (%) xyl 3 [2] [%]	Relative activity (%) xyl 1a [3] [%]	Relative activity (%) xyl 4 [4] [%]	Effect on activity of xyl 1b (in words) [5]	Relative activity (%) xyl 1b [5] [%]	Effect on activity of xyl 2 (in words) [1]	Effect on activity of xyl 3 (in words) [2]	Effect on activity of xyl 1a (in words) [3]	Effect on activity of xyl 4 (in words) [4]
O=C(O)c1cc[c]([Hg][OH])cc1 [PHMB, p-Hydroxymercury-benzoate]	90	96	100	95	completely inactivated	0				
O=S(=O)(F)Cc1ccccc1 [PMSF, Phenylmethylsulfonylfluoride]	100	100	95	100	did not influence the activity	87	did not influence the activity	did not influence the activity	did not influence the activity	did not influence the activity
N-Bromosuccinamide	0	0	0	0	totally inactivated	0	totally inactivated	totally inactivated	totally inactivated	totally inactivated
